Measured values from US7232570B2, “ERAAP modulators regulate immune responses” (Regents of the University of California, priority 2002, dated 2007).

Key:
human source ERAAP = human source ERAAP (Homo sapiens, UniProt Q9NZ08); assay: ERAAP modulation/selectivity screen against a panel of other aminopeptidases; type: biochemical; settings: preferential inhibition of ERAAP compared with a panel of other aminopeptidases
Excerpt: The targeted ERAAP is a well-known, naturally-occurring aminopeptidase, which has been biochemically characterized and cloned in a wide variety of animal species, including mice, rats and humans. […] Note that the same enzyme has been called “A-LAP” (adipocyte-derived leucine aminopeptidase) by others (e.g. Hattori et al., supra).
Protocols for delivering the inhibitor and effective dosages are known in the art and/or readily determined empirically by those skilled in the art guided by the selected inhibitor and the present disclosure. […] For example, the well-characterized structural interaction between aminothiol inhibitors of aminopeptidases (e.g. Bienvenue et al., J Inorgan Biochem 2000, 78, 43-54) were exploited to select ERAAP selective aminothiol-type inhibitors. In this manner, we screened panels of compounds and identified a number of ERAAP-selective aminothiol inhibitors, including leucine thiol and lysinethiol. ERAAP modulation assays may be performed by any convenient protocol, including those described by us in Serwold et al. (2001, supra), those of Hattori et al. (2000, supra), etc. […] Alternative aminopeptidase inhibitor pharmacophores for ERAAP selectivity and method compatibility screens include L-bis (1-thio-2-amino-4-methylpentane) dihydrochloride (TAMP) and L-bis (1-thio-2-amino-3-phenylpropane) dihydrochloride (TAPP) (see, e.g. Weiss et al., Res Comm Chem Path Pharmacol 1988, 62, 113-2) and alpha-thiolbestatins (e.g. Ocain et al., J Med Chem 1988 November;31(11):2193-9).

[1] = system: antigen presenting cells (APC); assay: APC assays with peripheral blood leukocytes from aminothiol-treated rats; type: in vivo, Sprague-Dawley rats; settings: peripheral blood leukocytes of treated rats as APC for T cells specific for K^b or D^b presented peptides
[2] = target: T1, predominant aminopeptidase activity present in the ER (ERAAP) (Mus musculus, UniProt Q9EQH2); assay: Aminopeptidase activity of solubilized microsomes, colorimetric substrate leucine-p-nitroanilide; type: biochemical, mice; settings: ion exchange chromatography of solubilized microsomes from mouse liver and spleen
T1 construct: Microsomes from liver and spleens of mice were solubilized in detergent; from tissue; host or cells: mouse liver and spleen microsomes
T1 sequence (Q9EQH2 1-930): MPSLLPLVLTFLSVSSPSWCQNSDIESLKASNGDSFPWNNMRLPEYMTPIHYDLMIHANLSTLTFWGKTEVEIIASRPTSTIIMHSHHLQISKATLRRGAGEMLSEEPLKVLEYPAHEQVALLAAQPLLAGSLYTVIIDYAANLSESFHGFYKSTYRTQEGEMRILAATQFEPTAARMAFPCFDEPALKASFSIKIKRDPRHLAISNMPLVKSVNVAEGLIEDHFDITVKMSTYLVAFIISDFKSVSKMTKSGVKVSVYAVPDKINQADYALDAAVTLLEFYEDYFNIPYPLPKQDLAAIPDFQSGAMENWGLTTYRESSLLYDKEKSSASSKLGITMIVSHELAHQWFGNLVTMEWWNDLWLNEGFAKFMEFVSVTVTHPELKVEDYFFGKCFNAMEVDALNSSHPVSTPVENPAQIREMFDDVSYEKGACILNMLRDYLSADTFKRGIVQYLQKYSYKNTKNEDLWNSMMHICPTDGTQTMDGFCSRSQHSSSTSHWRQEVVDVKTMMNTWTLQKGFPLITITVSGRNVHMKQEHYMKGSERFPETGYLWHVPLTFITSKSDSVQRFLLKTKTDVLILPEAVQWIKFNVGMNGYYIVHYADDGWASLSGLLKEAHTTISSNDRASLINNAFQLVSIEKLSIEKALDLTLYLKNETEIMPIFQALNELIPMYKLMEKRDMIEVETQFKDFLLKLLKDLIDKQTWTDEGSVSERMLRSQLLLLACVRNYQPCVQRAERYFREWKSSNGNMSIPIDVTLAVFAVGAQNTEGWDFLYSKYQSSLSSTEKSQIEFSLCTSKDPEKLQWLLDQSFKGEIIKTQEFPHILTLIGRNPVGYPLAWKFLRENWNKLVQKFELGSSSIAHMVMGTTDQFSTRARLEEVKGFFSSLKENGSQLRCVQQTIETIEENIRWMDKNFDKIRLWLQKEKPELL
Excerpt: To identify this protease, we biochemically purified the predominant aminopeptidase activity present in the ER. Microsomes from liver and spleens of mice were solubilized in detergent and the aminopeptidase activity was monitored by the colorimetric substrate leucine-p-nitroanilide (9). […] This activity was precipitated from solubilized microsomes by ammonium sulfate, resolublized and fractionated by size exclusion, ion exchange and hydrophobic interaction chromatographies. The highly enriched fractions from the final purification step contained a major band of approximately 100 kD on a coommassie blue stained SDS-PAGE gel. This band was subjected to in-gel trypsin digestion and the peptides were analyzed by MALDI-TOF mass spectrometry; the resulting tryptic peptide fingerprint was used to search the NCBI database (10). In two independent experiments 25 masses matched the predicted output of trypsin digested murine adipocyte-derived leucine aminopeptidase (Genbank Accession # AF227511). This assignment was further confirmed with the amino acid sequences of four peptides determined by high energy CID MS-MS analysis (11). This 930 amino acid murine aminopeptidase and its human and rat homologues are known by a variety of different names (12). […]

Sprague-Dawley rats = assay: Phenotypic and functional indicia of immunosuppression in treated rats; type: in vivo
ERAAP = ERAAP expression in cultured fibroblasts treated with interferon gamma; type: cell-based
Protocol: MHC I molecules are expressed by virtually all tissues. To determine whether ERAAP expression correlated with that of MHC I, seven different mouse tissues were analyzed by western blot for expression of ERAAP, MHC I and the housekeeping proteins actin and gp96 as controls. ERAAP was detected in all tissues analyzed but its expression was highest in the liver, lung, spleen and thymus, the same tissues which also expressed the highest levels of MHC I molecules. Furthermore, the expression of ERAAP was increased approximately 10-fold by treatment of cultured fibroblasts with the inflammatory cytokine interferon gamma, which also upregulates many other key components in the antigen processing pathway (17).

Chain of human source ERAAP (Q9NZ08 whole entry): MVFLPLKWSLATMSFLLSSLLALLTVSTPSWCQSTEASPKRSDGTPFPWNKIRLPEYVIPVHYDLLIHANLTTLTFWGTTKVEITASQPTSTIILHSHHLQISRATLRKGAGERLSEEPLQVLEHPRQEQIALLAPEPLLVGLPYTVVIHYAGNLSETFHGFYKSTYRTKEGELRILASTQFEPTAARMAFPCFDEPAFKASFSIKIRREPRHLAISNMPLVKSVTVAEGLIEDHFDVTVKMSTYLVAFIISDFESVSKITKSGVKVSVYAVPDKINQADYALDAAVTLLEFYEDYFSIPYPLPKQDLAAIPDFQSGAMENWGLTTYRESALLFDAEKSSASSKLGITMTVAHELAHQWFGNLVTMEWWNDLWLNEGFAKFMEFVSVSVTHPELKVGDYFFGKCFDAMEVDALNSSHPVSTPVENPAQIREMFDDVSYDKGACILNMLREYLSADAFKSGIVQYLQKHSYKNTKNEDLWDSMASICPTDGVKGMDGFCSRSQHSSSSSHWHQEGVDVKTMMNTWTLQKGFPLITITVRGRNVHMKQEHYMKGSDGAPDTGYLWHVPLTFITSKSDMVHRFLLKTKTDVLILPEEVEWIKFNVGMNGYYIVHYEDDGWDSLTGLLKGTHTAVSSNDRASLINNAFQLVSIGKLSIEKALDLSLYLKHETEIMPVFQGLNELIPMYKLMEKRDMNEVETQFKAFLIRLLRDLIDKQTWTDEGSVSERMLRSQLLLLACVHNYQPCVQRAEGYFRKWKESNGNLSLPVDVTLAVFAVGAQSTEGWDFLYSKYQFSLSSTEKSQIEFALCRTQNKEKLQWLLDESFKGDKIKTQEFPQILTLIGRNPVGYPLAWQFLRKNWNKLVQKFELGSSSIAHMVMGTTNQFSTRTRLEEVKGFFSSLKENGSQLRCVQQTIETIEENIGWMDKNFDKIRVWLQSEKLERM

With `CC[C@H](C)[C@H](N)CS` [isoleucinethiol] the ERAAP selectivity (human source ERAAP) was “ERAAP-selective”.

With `CC(C)C[C@H](N)CS` [leucinethiol] the APC function [1] was “pronounced inhibition”, the ERAAP selectivity (human source ERAAP) was “ERAAP-selective” and the “predominant aminopeptidase activity peak” value [2] was “blocked”. For the same molecule, the “spleen and thymus volume” value (Sprague-Dawley rats) was “reduced” and the graft-host response (Sprague-Dawley rats; e.g. skin graft assays) was “reduced”.

For `NCCCC[C@H](N)CS` [lysinethiol], the ERAAP selectivity (human source ERAAP) was “ERAAP-selective”.

interferon gamma: inflammatory cytokine was tested, and the “increase of ERAAP expression” value (ERAAP) was “approximately 10 fold”.
